The results in this text go back to patent publication US20160199436A1, “METHODS AND COMPOSITIONS FOR THE TREATMENT OF AMYOTROPHIC LATERAL SCLEROSIS” (University of Iowa Research Foudation, priority 2015, published 2016).

Test [1] relates to SOD1 mice. Put plainly: ALS score (disease progression/quality of life) in SOD1 mice. It is filed as in vivo, mouse. The source says:
(§1) In this Example, SOD1 mice, a known and accepted model of amyotrophic lateral sclerosis (ALS), were used to assess the effects of angiotensin (1-7) peptides, here TXA127 (SEQ ID NO: 1), on survival and quality of life over time. The SOD1 mouse line are known to contain a G93A mutation in their superoxide dismutase 1 (SOD1) gene, and this mutation leads to a phenotype very similar to the phenotype of a human ALS sufferer.
(§2) A total of 70 mice were used in this study, 40 SOD1 mice and 30 wild type C57BL/6J mice (all were obtained from the Jackson Laboratories). Mice were three weeks old at the beginning of the study, and osmotic minipumps were implanted in each animal. After implantation, each animal was exposed to either 500 μg/kg/day TXA127 (SEQ ID NO: 1) or saline vehicle for up to 8 weeks. After 8 weeks, surviving mice received a daily injection of either 500 μg/kg TXA127 (SEQ ID NO: 1) or vehicle.
In addition to survival, disease progression/quality of life was measured over time using the rating scale described above. […] FIG. 3 further describes this effect, by showing the percentage of animals in each SOD1 group that were rated as having an ALS score of 2 or less over time.

Test [2] concerns SOD1 mice. The experiment in a line: Survival of SOD1 mice (ALS model), Kaplan Meier. It is filed as in vivo, mouse.
Text: as §1, §2

[3] abbreviates: 500 μg/kg/day TXA127 vs SOD1-vehicle, up to 30 weeks.

Entries after “also recorded” stand apart in the source; their conditions may differ.

For “Asp^1-Arg^2-Val^3-Tyr^4-Ile^5-His^6-Pro^7 [TXA127]”, the “disease progression (summary in words)” value in the test with SOD1 mice [1] (500 μg/kg/day TXA127) is given as “delays disease progression”. Further, in the test with SOD1 mice [1] (setting [3]), the “percentage of animals with an ALS score of 2 or less over time (FIG. 3)” value is “clearly delayed the worsening of symptoms, often by several weeks” and the “sum of ALS scores over time (FIG. 2)” value is reported as “significantly delaying worsening of symptoms”. In the test with SOD1 mice [2] (500 μg/kg/day TXA127), the “effect on survival (in words)” value is recorded as “powerful survival benefit; also recorded: significant effect on survival” and the “extension of life (median) versus vehicle treated SOD1 mice” value is on record as 30 days. The substance also came in with a median survival with SOD1 mice [2] (500 μg/kg/day TXA127 by osmotic minipump up to 8 weeks, then daily injection) of 164 days.
